# Legend:
# Experiment in all cases: IO staining of colonies of beta-D-galactosidase positive/negative bacteria (Table IVb)
# Type in all cases: cell-based
# [1] = system: Aeromonas hydrophila 292; conditions: Aeromonas hydrophila strain 292, b-gal +; 24 h on Nutrient Agar, 150 mg/l indicator, 100 mg/l IPTG; on G: Growth of colonies: key: −: absent; +/−: weak; +: strong; ++: very strong
# [2] = system: Citrobacter freundii 181; conditions: Citrobacter freundii strain 181, b-gal +; 24 h on Nutrient Agar, 150 mg/l indicator, 100 mg/l IPTG; on C: Color of colonies: key: −: absent; +/−: weak; +: strong; ++: very strong; on G: Growth of colonies: key: −: absent; +/−: weak; +: strong; ++: very strong
# [3] = system: Enterobacter aerogenes 242; conditions: Enterobacter aerogenes strain 242, b-gal +; 24 h on Nutrient Agar, 150 mg/l indicator, 100 mg/l IPTG; on C: Color of colonies: key: −: absent; +/−: weak; +: strong; ++: very strong; on G: Growth of colonies: key: −: absent; +/−: weak; +: strong; ++: very strong
# [4] = system: Enterobacter cloacae 245; conditions: Enterobacter cloacae strain 245, b-gal +; 24 h on Nutrient Agar, 150 mg/l indicator, 100 mg/l IPTG; on C: Color of colonies: key: −: absent; +/−: weak; +: strong; ++: very strong; on G: Growth of colonies: key: −: absent; +/−: weak; +: strong; ++: very strong
# [5] = system: Escherichia coli (O157:H7) 60; conditions: Escherichia coli (O157:H7) strain 60, b-gal +; 24 h on Nutrient Agar, 150 mg/l indicator, 100 mg/l IPTG
# [6] = system: Escherichia coli 61; conditions: Escherichia coli strain 61, b-gal +; 24 h on Nutrient Agar, 150 mg/l indicator, 100 mg/l IPTG; on C: Color of colonies: key: −: absent; +/−: weak; +: strong; ++: very strong; on G: Growth of colonies: key: −: absent; +/−: weak; +: strong; ++: very strong
# [7] = system: Escherichia coli 270; conditions: Escherichia coli strain 270, b-gal +; 24 h on Nutrient Agar, 150 mg/l indicator, 100 mg/l IPTG; on C: Color of colonies: key: −: absent; +/−: weak; +: strong; ++: very strong; on G: Growth of colonies: key: −: absent; +/−: weak; +: strong; ++: very strong
# [8] = system: Klebsiella pneumoniae 164; conditions: Klebsiella pneumoniae strain 164, b-gal +; 24 h on Nutrient Agar, 150 mg/l indicator, 100 mg/l IPTG; on C: Color of colonies: key: −: absent; +/−: weak; +: strong; ++: very strong; on G: Growth of colonies: key: −: absent; +/−: weak; +: strong; ++: very strong
# [9] = system: Serratia marcescens 40; conditions: Serratia marcescens strain 40, b-gal +; 24 h on Nutrient Agar, 150 mg/l indicator, 100 mg/l IPTG; on G: Growth of colonies: key: −: absent; +/−: weak; +: strong; ++: very strong
# [10] = system: Staphylococcus intermedius 31; conditions: Staphylococcus intermedius strain 31, b-gal +; 24 h on Nutrient Agar, 150 mg/l indicator, 100 mg/l IPTG
# [11] = system: Staphylococcus saprophyticus 273; conditions: Staphylococcus saprophyticus strain 273, b-gal +; 24 h on Nutrient Agar, 150 mg/l indicator, 100 mg/l IPTG; on G: Growth of colonies: key: −: absent; +/−: weak; +: strong; ++: very strong
# [12] = system: Salmonella bongori 81; conditions: Salmonella bongori strain 81, b-gal +; 24 h on Nutrient Agar, 150 mg/l indicator, 100 mg/l IPTG; on C: Color of colonies: key: −: absent; +/−: weak/variable; +: strong; on G: Growth of colonies: key: −: absent; +/−: weak; +: strong; ++: very strong
# [13] = system: Salmonella illa 73; conditions: Salmonella illa strain 73, b-gal +; 24 h on Nutrient Agar, 150 mg/l indicator, 100 mg/l IPTG; further: key: −: absent; +/−: weak; +: strong; ++: very strong
# [14] = system: Shigella dysenteriae Serovar 1 131; conditions: Shigella dysenteriae Serovar 1 strain 131, b-gal +/−; 24 h on Nutrient Agar, 150 mg/l indicator, 100 mg/l IPTG
# [15] = system: Shigella sonnei 133; conditions: Shigella sonnei strain 133, b-gal +/−; 24 h on Nutrient Agar, 150 mg/l indicator, 100 mg/l IPTG; on C: Color of colonies: key: −: absent; +/−: weak; +: strong; ++: very strong; on G: Growth of colonies: key: −: absent; +/−: weak; +: strong; ++: very strong
# [16] = system: Yersinia enterocolitica 175; conditions: Yersinia enterocolitica strain 175, b-gal +/−; 24 h on Nutrient Agar, 150 mg/l indicator, 100 mg/l IPTG; on G: Growth of colonies: key: −: absent; +/−: weak; +: strong; ++: very strong
# [17] = system: Salmonella enteritidis 43; conditions: Salmonella enteritidis strain 43, b-gal −; 24 h on Nutrient Agar, 150 mg/l indicator, 100 mg/l IPTG; further: key: −: absent; +/−: weak; +: strong; ++: very strong
# [18] = system: Bacillus subtilis 65; conditions: Bacillus subtilis strain 65, b-gal −; 24 h on Nutrient Agar, 150 mg/l indicator, 100 mg/l IPTG; on C: Color of colonies: key: −: absent; +/−: weak; +: strong; ++: very strong; on F: Fluorescence of colonies: key: −: absent; +/−: weak; +: strong; ++: very strong
# [19] = system: Listeria monocytogenes (4b) 290; conditions: Listeria monocytogenes (4b) strain 290, b-gal −; 24 h on Nutrient Agar, 150 mg/l indicator, 100 mg/l IPTG; on C: Color of colonies: key: −: absent; +/−: weak; +: strong; ++: very strong; on F: Fluorescence of colonies: key: −: absent; +/−: weak; +: strong; ++: very strong
# [20] = system: Pseudomonas aeruginosa 168; conditions: Pseudomonas aeruginosa strain 168, b-gal −, 24 h on Nutrient Agar, 150 mg/l indicator, 100 mg/l IPTG; on C: Color of colonies: key: −: absent; +/−: weak; +: strong; ++: very strong; on G: Growth of colonies: key: −: absent; +/−: weak; +: strong; ++: very strong
# [21] = system: Shigella boydii 135; conditions: Shigella boydii strain 135, b-gal −; 24 h on Nutrient Agar, 150 mg/l indicator, 100 mg/l IPTG; further: key: −: absent; +/−: weak; +: strong; ++: very strong
# [22] = system: Staphylococcus aureus 2; conditions: Staphylococcus aureus strain 2, b-gal −, 24 h on Nutrient Agar, 150 mg/l indicator, 100 mg/l IPTG; on F: Fluorescence of colonies: key: −: absent; +/−: weak; +: strong; ++: very strong
# [23] = system: Streptococcus agalactiae 195; conditions: Streptococcus agalactiae strain 195, b-gal −; 24 h on Nutrient Agar, 150 mg/l indicator, 100 mg/l IPTG; on C: Color of colonies: key: −: absent; +/−: weak; +: strong; ++: very strong; on F: Fluorescence of colonies: key: −: absent; +/−: weak; +: strong; ++: very strong
structure (smiles),measurement,setting,value
"COc1ccc(C(=O)c2ccccc2-n2cc(O[C@@H]3O[C@H](CO)[C@H](O)[C@H](O)[C@H]3O)c3ccccc32)c(OC)c1 [Indicator I25a, 1-[2-(2,4-Dimethoxybenzoyl)phenyl]-1H-indol-3-yl-beta-D-galactopyranoside]",C: Color of colonies,[1],+
same,F: Fluorescence of colonies,[1],+/−
same,G: Growth of colonies,[1],+
same,C: Color of colonies,[2],+
same,F: Fluorescence of colonies,[2],+
same,G: Growth of colonies,[2],+
same,C: Color of colonies,[3],+
same,F: Fluorescence of colonies,[3],+
same,G: Growth of colonies,[3],+
same,C: Color of colonies,[4],+
same,F: Fluorescence of colonies,[4],++
same,G: Growth of colonies,[4],+
same,C: Color of colonies,[5],++
same,F: Fluorescence of colonies,[5],++
same,G: Growth of colonies,[5],+
same,C: Color of colonies,[6],++
same,F: Fluorescence of colonies,[6],++
same,G: Growth of colonies,[6],+
same,C: Color of colonies,[7],++
same,F: Fluorescence of colonies,[7],++
same,G: Growth of colonies,[7],+
same,C: Color of colonies,[8],+
same,F: Fluorescence of colonies,[8],+
same,G: Growth of colonies,[8],+
same,C: Color of colonies,[9],+
same,F: Fluorescence of colonies,[9],+/−
same,G: Growth of colonies,[9],+
same,C: Color of colonies,[10],+/−
same,F: Fluorescence of colonies,[10],+/−
same,G: Growth of colonies,[10],+
same,C: Color of colonies,[11],+/−
same,F: Fluorescence of colonies,[11],+/−
same,G: Growth of colonies,[11],+
same,C: Color of colonies,[12],+/−
same,F: Fluorescence of colonies,[12],+/−
same,G: Growth of colonies,[12],+
same,C: Color of colonies,[13],−
same,F: Fluorescence of colonies,[13],−
same,G: Growth of colonies,[13],+
same,C: Color of colonies,[14],−
same,F: Fluorescence of colonies,[14],−
same,G: Growth of colonies,[14],+
same,C: Color of colonies,[15],+
same,F: Fluorescence of colonies,[15],++
same,G: Growth of colonies,[15],+
same,C: Color of colonies,[16],−
same,F: Fluorescence of colonies,[16],−
same,G: Growth of colonies,[16],+
same,C: Color of colonies,[17],−
same,F: Fluorescence of colonies,[17],−
same,G: Growth of colonies,[17],+
same,C: Color of colonies,[18],−
same,F: Fluorescence of colonies,[18],−
same,G: Growth of colonies,[18],+
same,C: Color of colonies,[19],−
same,F: Fluorescence of colonies,[19],−
same,G: Growth of colonies,[19],+/−
same,C: Color of colonies,[20],−
same,G: Growth of colonies,[20],+
same,F: Fluorescence of colonies,[20]; footnote 1: blue autofluorescence,+^1
same,C: Color of colonies,[21],−
same,F: Fluorescence of colonies,[21],−
same,G: Growth of colonies,[21],+
same,F: Fluorescence of colonies,[22],−
same,G: Growth of colonies,[22],+
same,C: Color of colonies,[22]; footnote 2: S. aureus natural color,+/−^2
same,C: Color of colonies,[23],−
same,F: Fluorescence of colonies,[23],−
same,G: Growth of colonies,[23],+/−

# From patent US8940909B2, “Indicator platform” (Biosynth AG, priority 2009, dated 2015)
